Measured values from article PMC2849157 (Bioorganic & medicinal chemistry letters, 2010).

Assays:
[1] = test system: HIV; assay: anti-HIV activity, cellular assay; assay type: cell-based, human immunodeficiency virus 1 (HIV); settings: for antiviral activity: in words; for EC50: Human immunodeficiency virus 1, MT2, read-out: EC50, anti-HIV activity
[2] = test system: HCV; assay: anti-HCV activity; assay type: cell-based; settings: Hepatitis C virus, read-out: EC50, anti-HCV activity
[3] = test system: herpes simplex virus-1 (HSV-1); assay: effect on replication of HSV-1; assay type: cell-based
[4] = test system: HSV-2; assay: effect on replication of HSV-2; assay type: cell-based
[5] = test system: hepatitis B virus (HBV); assay: effect on replication of HBV; assay type: cell-based
[6] = test system: MT-2; assay: cytotoxicity; assay type: cell-based, human; settings: MT-2 cellular assay

| SMILES | antiviral activity [1] | EC50 [2] [nM] | EC50 [1] [nM] | also measured |
| --- | --- | --- | --- | --- |
| CCCCOc1c2cc(C(=O)Nc3cc(C(=O)O)cc(C(=O)OCc4ccccc4)c3)cc1Cc1cc(C(=O)Nc3cc(C(=O)O)cc(C(=O)OCc4ccccc4)c3)cc(c1OCCCC)Cc1cc(C(=O)Nc3cc(C(=O)O)cc(C(=O)OCc4ccccc4)c3)cc(c1OCCCC)Cc1cc(C(=O)Nc3cc(C(=O)O)cc(C(=O)OCc4ccccc4)c3)cc(c1OCCCC)C2 [Compound 1] | little to no antiviral activity | – | – | – |
| CCCCOc1c2cc(C(=O)Nc3cc(C(=O)O)cc(C(=O)O)c3)cc1Cc1cc(C(=O)Nc3cc(C(=O)O)cc(C(=O)O)c3)cc(c1OCCCC)Cc1cc(C(=O)Nc3cc(C(=O)O)cc(C(=O)O)c3)cc(c1OCCCC)Cc1cc(C(=O)Nc3cc(C(=O)O)cc(C(=O)O)c3)cc(c1OCCCC)C2 [Compound 2] | – | 1800 | 300 | effect on the replication of HSV-1 [3]: no effect; potency against different laboratory HIV strains ([1]; HIV-IIIB, NL-43, LaiM184V): equally potent; antiviral activity in different cell lines ([1]; MT-2, CEMx174, TZM-bl): antiviral activity was retained in all these cell lines; effect on the replication of HSV-2 [4]: no effect; effect on the replication of HBV [5]: no effect |
| CCCCOc1c2cc(C(=O)Nc3cc(C(=O)O)cc(C(=O)NC4CCCCC4)c3)cc1Cc1cc(C(=O)Nc3cc(C(=O)O)cc(C(=O)NC4CCCCC4)c3)cc(c1OCCCC)Cc1cc(C(=O)Nc3cc(C(=O)O)cc(C(=O)NC4CCCCC4)c3)cc(c1OCCCC)Cc1cc(C(=O)Nc3cc(C(=O)O)cc(C(=O)NC4CCCCC4)c3)cc(c1OCCCC)C2 [Compound 3] | little to no antiviral activity | – | – | – |
| CCCCOc1c2cc(C(=O)NCCN)cc1Cc1cc(C(=O)NCCN)cc(c1OCCCC)Cc1cc(C(=O)NCCN)cc(c1OCCCC)Cc1cc(C(=O)NCCN)cc(c1OCCCC)C2 [Compound 7] | lack of antiviral activity | – | – | – |
| O=C(O)c1cc(NC(=O)c2cc3c(O)c(c2)Cc2cc(C(=O)Nc4cc(C(=O)O)cc(C(=O)O)c4)cc(c2O)Cc2cc(C(=O)Nc4cc(C(=O)O)cc(C(=O)O)c4)cc(c2O)Cc2cc(C(=O)Nc4cc(C(=O)O)cc(C(=O)O)c4)cc(c2O)C3)cc(C(=O)O)c1 [Compound 9] | – | > 50000 | 6700 | – |
| O=C(O)c1cc(NC(=O)c2cc3c(OCc4ccccc4)c(c2)Cc2cc(C(=O)Nc4cc(C(=O)O)cc(C(=O)O)c4)cc(c2OCc2ccccc2)Cc2cc(C(=O)Nc4cc(C(=O)O)cc(C(=O)O)c4)cc(c2OCc2ccccc2)Cc2cc(C(=O)Nc4cc(C(=O)O)cc(C(=O)O)c4)cc(c2OCc2ccccc2)C3)cc(C(=O)O)c1 [Compound 11] | – | 1400 | 300 | ID50 (toxicity) [6]: 18000 nM |
